Results taken from EP0210227B1, “PYRIMIDINE SULFATES FOR HAIR GROWTH” (THE UPJOHN COMPANY, priority 1985, dated 1986).
Where a name gives a salt, the structure may show the parent alone.

Tests used:
Type in all cases: in vivo
[1] = tested on: hair-deficient mice called "nude" (nu/nu); assay: Hair growth in nude mice, oral drug daily without resting on weekends (Example 2); conditions: for Score of Photos 1+ (Number of animals with at least 1 of 5 photos showing positive hair growth) / Score of Photos 2+ (Number of animals with at least 2 of 5 photos showing positive hair growth): Example 2, daily, eleven week old mice; for inducing hair growth, compared with minoxidil: summary of Table I in words
Excerpt: (§1) The present invention is illustrated by the Examples, below. Examples 1-3 illustrate the effect of minoxidil sulfate (a compound of the present invention) and minoxidil (the corresponding N-oxide) in genetically identical hair-deficient mice called "nude" (nu/nu) (see Flanagen, Genet. Res. 8:295-309 (1966)). […] All mice in the species mus grow hair in a definite, 20 day cycle, going from head to tail (see Barom, Acta Path. Micro. Scan. 34: 521-541 (1954)). "Nude" mice have the same pattern (see Eton, Transplantation 22: 217-222 (1976)). Hair fails to appear in the nude mouce since it never emerges due to the fact that the hair shaft is incompletely formed, poorly keratinized, or both. The nacent hair shafts fragment within the follicle and thus never emerge or break near the skin surface. The hair produced in the nude mice treated with the compounds described below is more normal and mechanically competent to emerge and persit. Eventually, however, even the hair produced in the drug treated animals falls out due to the genetic defect of these animals. Nonetheless, significant differences in hair growth can be observed in the drug treated animals as compared to the control animals during the twenty day cycle.
(§2) In the Examples, five photographs were taken of the animals every six days over a four week period.
Eleven week old mice from the same group fo animals as used in Example 1 were treated by oral administration of 0.25 ml of either minoxidil or minoxidil sulfate in water daily without resting on weekends. Weights were assumed to be an average of 25 g per animal for dosing purposes.

Balb/c nu/nu male mice = assay: Hair growth in nude mice, daily oral or topical drug (Example 3); conditions: six week old mice
Excerpt: as §1, §2
Six week old Balb/c nu/nu male mice were given daily oral drug (without resting on weekends) in 0.25 ml water. Topical minoxidil sulfate was applied in 0.25 ml of a propylene glycol, ethanol, and watervehicle.

stumptail Macque monkeys = assay: Hair growth rate on the scalp of balding monkeys, topical solution (Example 4); conditions: for Mean wt. (clipped hair, 2.54 cm square area of treated scalp): topical daily, 250 microliters of 750 mg in 50 ml acetone:N-methylpyrrolidone 94:6
Experimental: Topical minoxidil sulfate solution was applied to a group of 6 stumptail Macque monkeys daily, 7 days/ week. The topical minoxidil sulfate solution was prepared by dissolving 750 mg of minoxidil sulfate in 50 ml of a 94:6 volume:volume solution of acetone: N-methylpyrrolidone. A second group of 6 animals served as controls and received vehicle only. the volume per application was 250 microliters applied to the frontal scalp with an art brush. Hair growth rate within a 2.54 cm (1 inch) square area of treated scalp was assessed by quantitatively clipping the hair at successive intervals of 42 days, 21 days and 21 days and weighing the residue.

[2] = 20 mg/kg topical in propylene glycol, ethanol and water vehicle
[3] = 40 mg/kg topical in propylene glycol, ethanol and water vehicle

## Nc1cc(N2CCCCC2)nc(N)[n+]1OS(=O)(=O)[O-] [Minoxidil Sulfate, 2,6-Diamino-4-(1-piperidinyl)-1-(sulfoxy)-pyrimidinium hydroxide, inner salt]
[1]; 20 mg/kg oral
  Score of Photos 1+ (Number of animals with at least 1 of 5 photos showing positive hair growth): 4/5
  Score of Photos 2+ (Number of animals with at least 2 of 5 photos showing positive hair growth): 3/5
[1]; 40 mg/kg oral
  Score of Photos 1+ (Number of animals with at least 1 of 5 photos showing positive hair growth): 3/5
  Score of Photos 2+ (Number of animals with at least 2 of 5 photos showing positive hair growth): 1/5
[1]; at 20 mg/kg
  inducing hair growth, compared with minoxidil: significantly better than minoxidil
[1]; at 40 mg/kg
  inducing hair growth, compared with minoxidil: equipotent to or better than minoxidil
Balb/c nu/nu male mice; 5 mg/kg oral, daily
  Score of Photos 1+ (Number of animals with at least 1 of 5 photos showing positive hair growth): 2/5
  Score of Photos 2+ (Number of animals with at least 2 of 5 photos showing positive hair growth): 1/5
Balb/c nu/nu male mice; 10 mg/kg oral, daily
  Score of Photos 1+ (Number of animals with at least 1 of 5 photos showing positive hair growth): 1/5
  Score of Photos 2+ (Number of animals with at least 2 of 5 photos showing positive hair growth): 1/5
Balb/c nu/nu male mice; 20 mg/kg oral, daily
  Score of Photos 1+ (Number of animals with at least 1 of 5 photos showing positive hair growth): 2/5
  Score of Photos 2+ (Number of animals with at least 2 of 5 photos showing positive hair growth): 1/5
Balb/c nu/nu male mice; [2]
  Score of Photos 1+ (Number of animals with at least 1 of 5 photos showing positive hair growth): 2/5
  Score of Photos 2+ (Number of animals with at least 2 of 5 photos showing positive hair growth): 0/5
Balb/c nu/nu male mice; 40 mg/kg oral, daily
  Score of Photos 1+ (Number of animals with at least 1 of 5 photos showing positive hair growth): 3/5
  Score of Photos 2+ (Number of animals with at least 2 of 5 photos showing positive hair growth): 0/5
Balb/c nu/nu male mice; [3]
  Score of Photos 1+ (Number of animals with at least 1 of 5 photos showing positive hair growth): 2/5
  Score of Photos 2+ (Number of animals with at least 2 of 5 photos showing positive hair growth): 1/5
Stumptail Macque monkeys; Collection 1 (interval of 42 days)
  Mean wt. (clipped hair, 2.54 cm square area of treated scalp): 76 ±20 uG/day
Stumptail Macque monkeys; Collection 2 (next interval of 21 days)
  Mean wt. (clipped hair, 2.54 cm square area of treated scalp): 313 ±67 uG/day
Stumptail Macque monkeys; Collection 3 (last interval of 21 days)
  Mean wt. (clipped hair, 2.54 cm square area of treated scalp): 343 ±52 uG/day
Stumptail Macque monkeys; balding monkeys, summary of Table II in words
  hair growth following topical application to the scalp: stimulates hair growth
Stumptail Macque monkeys; by the third collection, summary of Table II in words
  increase in hair growth versus vehicle: statistically significant increase in hair growth
